Experimental data reported in US20080310991A1, “Perishable-fruit-bearing cut-limb preservation and distribution method, coating and shipping container therefor” (State of Oregon, acting by and through the State Board of …, priority 2007, published 2008).

How the values were obtained:
Format in all cases: in vivo, Malus silvestris L. var. domestica Borkh.
[1] = system: Rome Beauty apples cut-limbs; assay: Ascorbic acid dipping/abscisic acid spraying experiment; details: packaged
Procedure: (§1) For Rome Beauty apples only, a long term storage experiment and an ascorbic acid dip solution/plant regulator spray experiment were also carried out. For the long-term storage experiment, sixty cut-limbs were harvested, packed in the perforated bags, and stored at 1° C. (nearly the freezing temperature of water). Half of the cut-limbs were treated with 0.0001% by volume (1 ppm) of 1-methylcyclopropene (1-MCP) at 1° C. for twenty-four hours before storage. […] It is possible, however, that MCP treatment would be beneficial in other applications, e.g. with different fruit types, varieties, cultivars, etc.
(§2) The cut-limbs without 1-MCP treatment, after twenty-three and forty-two days of cold storage, were then transferred to room temperature (20° C.), and treated with the following five treatments: bagging, water dipping, bagging plus dipping, bagging […] the control. For the ascorbic acid dipping/abscisic acid spraying experiment, the following four treatments were carried out: ascorbic acid (0.1%) dipping only, coating with an abscission-inducing agent (ABA) such as 0.001% by volume (10 ppm) of abscisic acid added only, 0.1% by volume of ascorbic acid dipping plus coating with ABA added, and the control only. All of the treatments included dipping or coating (or both) and packaging in the perforated polyethylene bags.

[2] = system: Rome Beauty apple-bearing cut-limbs; assay: Long-term storage experiment with 1-MCP treatment; details: 1 ppm 1-MCP at 1° C. for twenty-four hours
Procedure: as §1

[3] = system: cut-limbs of Golden Delicious apple; assay: Citric acid immerging, visual quality of cut-limbs; details: 0.5% CA, 30 mL, packaged, 20° C.
Excerpt: (§3) Visual quality of leaves was scored with the widely used scale of 9=excellent, fresh; 7=good; 5=fair, slight discoloration; 3=mild discoloration and dryness; and 1=severe discoloration and dryness. Sensory quality of fruit was scored using a scale of 9=pleasant, fresh; 7=good; 5=bland, faint taste; 3=unpleasant taste; and 1=inedible. For both scales, a score of 5 is generally considered in post-harvest studies to be the threshold level of acceptability.

[4] = system: Rome Beauty apples cut-limbs; assay: Ascorbic acid treatment, visual quality during storage; details: for Fruit visual quality / Leaves Symptom / Leaves visual quality: Rome Beauty apples, ASA 0.1%, 30 mL, packaged, 20° C.
Procedure: as §2, §3

[5] = 10 ppm abscisic acid in the edible coatings
[6] = 0.1% ascorbic acid dip solution

**Q.** What does the source list for `CC1=CC(=O)CC(C)(C)[C@@]1(O)/C=C/C(C)=C\C(=O)O` [abscisic acid]?
**A.** Shelf-life of the cut-limbs [1, 5]: increased; Water loss [1, 5]: decreased

**Q.** For `CC1=CC1` [1-MCP, 1-methylcyclopropene], which Fruit appearance ([2]; Rome Beauty cut-limbs) is on record?
**A.** Its Fruit appearance is “normal appearance”.

**Q.** And the “Leaves showing brown-black burn symptoms” value ([2]; Rome Beauty cut-limbs)?
**A.** Its value is “approximately 68%”.

**Q.** And the “Phytotoxicity to the leaves” value ([2]; after four days of storage at 1° C.)?
**A.** The value was “severe phytotoxicity”.

**Q.** For `O=C(O)CC(O)(CC(=O)O)C(=O)O` [CA, citric acid], which Fruit visual quality ([3]; day 1) is on record?
**A.** The Fruit visual quality was 9.0.

**Q.** And the Leaves visual quality ([3]; day 1)?
**A.** Its Leaves visual quality is 8.6.

**Q.** What about the Fruit visual quality ([3]; day 2) of the same compound?
**A.** Its Fruit visual quality is 9.0.

**Q.** What about the Leaves visual quality ([3]; day 2) of the same compound?
**A.** The Leaves visual quality was 8.4.

**Q.** What about the Fruit visual quality ([3]; day 3) of the same compound?
**A.** Its Fruit visual quality is 9.0.

**Q.** And the Leaves visual quality ([3]; day 3)?
**A.** The Leaves visual quality was 8.3.

**Q.** What about the Fruit visual quality ([3]; day 4) of the same compound?
**A.** Its Fruit visual quality is 8.5.

**Q.** And the Leaves visual quality ([3]; day 4)?
**A.** The Leaves visual quality was 7.9.

**Q.** What about the Fruit visual quality ([3]; day 5) of the same compound?
**A.** The Fruit visual quality was 8.5.

**Q.** What about the Leaves visual quality ([3]; day 5) of the same compound?
**A.** The Leaves visual quality was 8.4.

**Q.** And the Fruit visual quality ([3]; day 6)?
**A.** The Fruit visual quality was 8.5.

**Q.** And the Leaves visual quality ([3]; day 6)?
**A.** The Leaves visual quality was 8.2.

**Q.** What about the Fruit visual quality ([3]; day 7) of the same compound?
**A.** Its Fruit visual quality is 8.5.

**Q.** What about the Leaves visual quality ([3]; day 7) of the same compound?
**A.** Its Leaves visual quality is 8.0.

**Q.** `O=C1O[C@H]([C@@H](O)CO)C(O)=C1O` [ASA, ascorbic acid] was tested. Which “Shelf-life of the cut-limbs” value [1, 6] did it give?
**A.** Its value is “increased”.

**Q.** What about the Water loss [1, 6] of the same compound?
**A.** The Water loss was “decreased”.

**Q.** And the Fruit visual quality ([4]; day 1)?
**A.** Its Fruit visual quality is 9.0 a.

**Q.** And the “Leaves Symptom” value ([4]; day 1)?
**A.** The value was “Normal”.

**Q.** And the Leaves visual quality ([4]; day 1)?
**A.** The Leaves visual quality was 8.5 a.

**Q.** What about the Fruit visual quality ([4]; day 2) of the same compound?
**A.** Its Fruit visual quality is 9.0 a.

**Q.** And the “Leaves Symptom” value ([4]; day 2)?
**A.** Its value is “Normal”.

**Q.** What about the Leaves visual quality ([4]; day 2) of the same compound?
**A.** Its Leaves visual quality is 8.6 a.

**Q.** And the Fruit visual quality ([4]; day 3)?
**A.** Its Fruit visual quality is 9.0 a.

**Q.** What about the “Leaves Symptom” value ([4]; day 3) of the same compound?
**A.** The value was “Normal”.

**Q.** What about the Leaves visual quality ([4]; day 3) of the same compound?
**A.** Its Leaves visual quality is 8.3 a.

**Q.** And the Fruit visual quality ([4]; day 4)?
**A.** Its Fruit visual quality is 9.0 a.

**Q.** What about the “Leaves Symptom” value ([4]; day 4) of the same compound?
**A.** The value was “Normal”.

**Q.** And the Leaves visual quality ([4]; day 4)?
**A.** Its Leaves visual quality is 8.3 a.

**Q.** And the Fruit visual quality ([4]; day 5)?
**A.** Its Fruit visual quality is 9.0 a.

**Q.** What about the “Leaves Symptom” value ([4]; day 5) of the same compound?
**A.** The value was “Normal”.

**Q.** What about the Leaves visual quality ([4]; day 5) of the same compound?
**A.** Its Leaves visual quality is 8.4 a.

**Q.** What about the Fruit visual quality ([4]; day 6) of the same compound?
**A.** Its Fruit visual quality is 9.0 a.

**Q.** What about the Leaves visual quality ([4]; day 6) of the same compound?
**A.** The Leaves visual quality was 8.2 a.

**Q.** And the Fruit visual quality ([4]; day 7)?
**A.** Its Fruit visual quality is 8.5 a.

**Q.** And the Leaves visual quality ([4]; day 7)?
**A.** The Leaves visual quality was 8.0 a.

**Q.** What about the “Color and luster (FIG. 3C)” value ([4]; after seven days stored with water dipping and packaging, vs no-acid) of the same compound?
**A.** The value was “visibly better color and luster”.
